Measurements as given in patent publication US20220380338A1, “CYCLOALKYL 3-OXOPIPERAZINE CARBOXAMIDES AND CYCLOHETEROALKYL 3-OXOPIPERAZINE CARBOXAMIDES AS NAV1.8 INHIBITORS” (Merck Sharp & Dohme LLC, priority 2021, published 2022).

Biological target: T1, human NaV1.8 (Homo sapiens, UniProt Q9Y5Y9)
T1 construct: expressed in transfected cells
Assay: Nav1.8 Qube® Assay (automated 384-well patch-clamp, inhibition of sodium current)
Format: cell-based
Details: human NaV1.8 channels stably expressed in HEK 293 cells, room temperature
Summary of the method: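 Whole-cell voltage clamp at room temperature in HEK293 cells stably expressing NaV1.8; from −90 mV hold, 10 s 1 Hz train of 20 ms pulses to 10 mV with 980 ms repolarization to −67 mV. Peak currents of 1st and 10th pulses give resting and inactivated-state IC50s, Hill fit.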

T1 sequence (Q9Y5Y9 whole entry): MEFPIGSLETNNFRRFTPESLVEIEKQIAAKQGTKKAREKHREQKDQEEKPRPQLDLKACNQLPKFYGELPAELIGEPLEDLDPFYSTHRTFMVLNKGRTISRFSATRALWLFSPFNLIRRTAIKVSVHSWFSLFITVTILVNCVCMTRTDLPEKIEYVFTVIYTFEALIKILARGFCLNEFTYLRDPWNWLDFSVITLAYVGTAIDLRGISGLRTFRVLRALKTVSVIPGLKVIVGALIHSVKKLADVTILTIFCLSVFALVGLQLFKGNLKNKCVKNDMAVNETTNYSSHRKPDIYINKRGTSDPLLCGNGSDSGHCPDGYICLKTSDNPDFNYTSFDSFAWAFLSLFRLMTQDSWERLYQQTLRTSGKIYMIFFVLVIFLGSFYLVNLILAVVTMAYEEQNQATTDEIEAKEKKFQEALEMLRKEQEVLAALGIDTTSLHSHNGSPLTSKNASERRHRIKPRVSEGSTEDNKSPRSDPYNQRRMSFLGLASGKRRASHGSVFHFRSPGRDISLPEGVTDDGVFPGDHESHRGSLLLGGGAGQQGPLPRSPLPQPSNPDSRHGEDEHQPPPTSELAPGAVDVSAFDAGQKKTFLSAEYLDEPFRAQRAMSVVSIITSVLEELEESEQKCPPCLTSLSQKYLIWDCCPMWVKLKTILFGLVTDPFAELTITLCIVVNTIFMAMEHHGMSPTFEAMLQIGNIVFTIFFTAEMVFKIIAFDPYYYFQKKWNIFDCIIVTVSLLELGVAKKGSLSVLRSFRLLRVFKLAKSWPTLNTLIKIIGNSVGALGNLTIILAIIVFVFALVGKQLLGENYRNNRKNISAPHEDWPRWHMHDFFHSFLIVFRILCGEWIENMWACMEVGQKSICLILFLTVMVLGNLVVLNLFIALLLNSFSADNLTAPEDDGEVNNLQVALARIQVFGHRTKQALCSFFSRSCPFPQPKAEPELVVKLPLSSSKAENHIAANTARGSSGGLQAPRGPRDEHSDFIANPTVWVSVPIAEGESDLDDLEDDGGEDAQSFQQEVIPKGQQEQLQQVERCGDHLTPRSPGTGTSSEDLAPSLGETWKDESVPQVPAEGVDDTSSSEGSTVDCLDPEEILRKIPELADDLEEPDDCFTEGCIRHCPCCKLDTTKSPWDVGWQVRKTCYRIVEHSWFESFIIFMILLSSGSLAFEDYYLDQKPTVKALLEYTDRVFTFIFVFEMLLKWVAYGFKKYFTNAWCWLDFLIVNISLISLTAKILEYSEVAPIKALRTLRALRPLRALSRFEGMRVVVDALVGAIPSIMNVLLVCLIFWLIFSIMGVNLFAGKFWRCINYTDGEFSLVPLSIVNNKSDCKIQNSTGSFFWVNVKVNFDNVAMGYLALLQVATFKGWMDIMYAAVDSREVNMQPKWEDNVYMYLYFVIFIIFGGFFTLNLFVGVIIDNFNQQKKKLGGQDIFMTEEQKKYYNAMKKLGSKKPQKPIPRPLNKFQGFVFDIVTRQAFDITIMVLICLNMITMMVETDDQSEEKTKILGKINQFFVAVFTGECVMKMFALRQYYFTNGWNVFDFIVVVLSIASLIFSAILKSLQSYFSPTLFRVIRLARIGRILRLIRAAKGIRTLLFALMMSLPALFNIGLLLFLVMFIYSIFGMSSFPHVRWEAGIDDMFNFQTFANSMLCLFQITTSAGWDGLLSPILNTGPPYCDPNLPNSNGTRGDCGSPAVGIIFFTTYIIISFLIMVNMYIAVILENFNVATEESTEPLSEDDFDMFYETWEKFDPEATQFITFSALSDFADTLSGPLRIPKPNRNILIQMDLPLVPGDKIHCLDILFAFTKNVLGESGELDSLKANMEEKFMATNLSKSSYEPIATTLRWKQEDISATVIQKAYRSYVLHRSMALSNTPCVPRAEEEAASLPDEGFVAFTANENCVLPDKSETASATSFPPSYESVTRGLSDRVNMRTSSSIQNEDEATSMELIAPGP

Compound | IC50
C[C@@H]1C(=O)NCCN1C(=O)NC(c1ccc(F)c(Cl)c1)[C@@H]1C[C@@H]2[C@H](C1)C2(F)F (single isomer, unassigned) [Example 7B, (2R)-N-((S or R)-(3-chloro-4-fluoro-phenyl)((1R,3s,5S)-6,6-difluoro-bicyclo[3.1.0]hexan-3-yl)methyl)-2-methyl-3-oxo-piperazine-1-carboxamide] | 11.7 nM
C[C@@H]1C(=O)NCCN1C(=O)NC(c1ccc(F)c(F)c1)[C@H]1CC[C@H](C(F)(F)F)CC1 (single isomer, unassigned) [Example 8A, (2R)-N-((R or S)-(3,4-difluoro-phenyl)(trans-4-(trifluoromethyl)cyclo-hexyl)methyl)-2-methyl-3-oxo-piperazine-1-carboxamide] | 244 nM
C[C@@H]1C(=O)NCCN1C(=O)NC(c1ccc(C(F)(F)F)nc1)C1CC(C)(C)C1 (single isomer, unassigned) [Example 33A, (2R)-N-((R or S)-(3,3-dimethylcyclobutyl)(6-(trifluoromethyl)pyridin-3-yl)methyl)-2-methyl-3-oxopiperazine-1-carboxamide] | 135 nM
C[C@@H]1C(=O)NCCN1C(=O)NC(c1csc(C(F)(F)F)n1)[C@H]1CC[C@H](C(F)(F)F)CC1 (single isomer, unassigned) [Example 55B] | 26.3 nM
C[C@@H]1C(=O)NCCN1C(=O)NC(c1ccc(F)c(Cl)c1)C1CC(OC(F)F)C1 (single isomer, unassigned) [Example 38B, (2R)-N-((R or S)-(3-chloro-4-fluorophenyl) (cis-3-(difluoromethoxy)cyclobutyl)methyl)-2-methyl-3-oxopiperazine-1-carboxamide] | 158 nM
C[C@@H]1C(=O)NCCN1C(=O)NC(c1ccc(F)c(Cl)c1F)C1CC(C2CC2)C1 (single isomer, unassigned) [Example 21A, (2R)-N-((R or S)-(3-chloro-2,4-difluoro-phenyl)(trans or cis-3-cyclopropylcyclobutyl)methyl)-2-methyl-3-oxopiperazine-1-carboxamide] | 1.08 nM
C[C@@H]1C(=O)NCCN1C(=O)NC(c1csc(C(F)(F)F)n1)[C@H]1CC[C@H](C(F)(F)F)CC1 (single isomer, unassigned) [Example 55A] | 494 nM
O=C1NCCN(C(=O)N[C@H](c2ccc(F)c(Cl)c2F)[C@H]2C[C@H](C(F)(F)F)C2)C1C(F)(F)F (single isomer, unassigned) [Example 63B, (S or R)—N—((S)-(3-chloro-2,4-difluorophenyl)((trans)-3-(trifluoromethyl)cyclobutyl)methyl)-3-oxo-2-(trifluoromethyl)piperazine-1-carboxamide] | 9.1 nM
C[C@@H]1C(=O)NCCN1C(=O)NC(c1ccc(F)c(Cl)c1)C1CC(OCC(F)(F)F)C1 (single isomer, unassigned) [Example 44C, (2R)—N—((R or S)-(3-chloro-4-fluorophenyl)(trans-3-(2,2,2-trifluoroethoxy)cyclobutyl)methyl)-2-methyl-3-oxopiperazine-1-carboxamide] | 172 nM
C[C@@H]1C(=O)NCCN1C(=O)NC(c1ccc(F)c(Cl)c1)C1CC(C(F)(F)F)C1 (single isomer, unassigned) [Example 43C, (2R)-N-((S or R)-(3-chloro-4-fluorophenyl)-(trans-3-(trifluoro-methyl)-cyclobutyl)-methyl)-2-methyl-3-oxopiperazine-1-carboxamide] | 3.2 nM
C[C@@H]1C(=O)NCCN1C(=O)NC(c1ccc(F)c(Cl)c1F)C1CC(F)(F)C1 (single isomer, unassigned) [Example 24B, (2R)-N-((S or R)-(3-chloro-2,4-difluoro-phenyl)(3,3-difluoro-cyclobutyl)methyl)-2-methyl-3-oxopiperazine-1-carboxamide] | 29.1 nM
C[C@@H]1C(=O)NCCN1C(=O)NC(c1ccc(Cl)c(C(F)F)c1)C1CCC(C(F)(F)F)CC1 (single isomer, unassigned) [Example 37D, (2R)-N-((S or R)-(4-chloro-3-(difluoro-methyl)phenyl)(trans-4-(trifluoromethyl)cyclohexyl)methyl)-2-methyl-3-oxopiperazine-1-carboxamide] | 1.99 nM
Cc1cc(C(NC(=O)N2CCNC(=O)[C@H]2C)C2CCC(C(F)(F)F)CC2)ccc1F (single isomer, unassigned) [Example 36D] | 3.99 nM
C[C@@H]1C(=O)NCCN1C(=O)NC(c1ccc(F)c(Cl)c1F)C1CC2(CC2)C1 (single isomer, unassigned) [Example 28A, (2R)—N—((R or S)-(3-chloro-2,4-difluorophenyl)(spiro[2.3]hexan-5-yl)methyl)-2-methyl-3-oxopiperazine-1-carboxamide] | 2.65 nM
COC1CC(C(NC(=O)N2CCNC(=O)[C@H]2C)c2ccc(F)c(Cl)c2F)C1 (single isomer, unassigned) [Example 40C, (2R)-N-((S or R)-(3-chloro-2,4-difluoro-phenyl)(cis-3-methoxycyclobutyl)-methyl)-2-methyl-3-oxopiperazine-1-carboxamide] | 362 nM
C[C@@H]1C(=O)NCCN1C(=O)NC(c1ccc(F)c(Cl)c1F)C1CC12CC2 (single isomer, unassigned) [Example 41D, (2R)-N-((S or R)-(3-chloro-2,4-difluoro-phenyl)((S or R)-spiro[2.2]pentan-1-yl)methyl)-2-methyl-3-oxopiperazine-1-carboxamide] | 1060 nM
O=C1NCCN(C(=O)N[C@H](c2ccc(F)c(Cl)c2F)[C@H]2C[C@H](C(F)(F)F)C2)C1C1CC1 (single isomer, unassigned) [Example 27A, (R or S)—N—((S)-(3-chloro-2,4-difluorophenyl)(trans-3-(trifluoromethyl)cyclobutyl)methyl)-2-cyclopropyl-3-oxopiperazine-1-carboxamide] | 0.8 nM
